“And” between values parts separate entries of the source, which are not always exact repeats. Equal entries are not always repeated. Where two headings read alike, the source gives them in different places.
What was measured:
Arsb^- mice [1] = experiment: Sulphated GAG accumulation in liver and kidney (Alcian Blue staining, Blyscan); type: in vivo; conditions: for Liver sulphated GAG accumulation / Kidney sulphated GAG accumulation: Arsb^- mice; for Liver sulphated GAG accumulation: 6 months of treatment; for Kidney sulphated GAG accumulation: Alcian Blue
Method: (§1) MPS VI model nonsense mutation Arsb^m1J homozygous mice (referred to as Arsb^- throughout the manuscript) and WT littermates were obtained from internal breeding of stock mice derived from The Jackson Laboratory strain No: 005598 (C57BL/6J-Arsb^m1J/GrsrJ). Genotyping and Arsb^m1J mutation identification were performed according to the protocol provided by The Jackson Laboratory. Each study group contained mix of male and female: 6 animals in disease progression studies and between 8 and 12 animals in odiparcil treatment studies.
Housing conditions. The animals were housed in groups of 3–10 (for mice) or 2 (for rats) in polypropylene cages (floor area = 1032 cm^2) under standard conditions: room temperature (22 ± 2°C), hygrometry (55 ± 10%), light/dark cycle (12h/12h), air replacement (15–20 volumes/hour), water and food ad libitum. Mice were allowed to habituate for at least 5 days prior to experimentation. Mice were numbered by marking their tail using indelible markers. For the early disease model (treatment starting in juvenile, 4 weeks old mice), odiparcil administration in the weeks 1 to 6 was done per gavage with odiparcil in Methylcellulose 400 cps 1% / Poloxamer 188 0.1% / Water, freshly prepared every week. Later on, administration was per chow diet with odiparcil mixed before diet granulation. For advanced disease treatment (treatment starting in adult, 3 months old mice), administration was per diet from the beginning of the study. WT and Arsb^- animals were randomized into groups: control and two doses of odiparcil: 1.5 g odiparcil per kg of diet and 4.5 g odiparcil per kg of diet. For urine collection, animals were placed for 24 hours in standard metabolism cages (2 or 3 animals per cage). At the end of the studies, animals were anesthetized (O2 / isoflurane), blood for smears was collected from ocular sinus and after euthanasia samples from liver and kidney (snap frozen for total GAG analysis by Blyscan method or fixed for histology, see below) and from trachea and knee from the left hind leg were collected.
Total sulphated GAG in cell culture media were determined colorimetrically by DMMB method (described in [31] adapted for cell culture media). Total sulphated GAG in snap frozen liver and kidney samples and urine were measured using Blyscan assay from Biocolor Company (UK) following manufacturer’s instructions. Urine samples were processed directly according to the kit manual. For GAG in tissues quantification, individual pieces (approximately 50 mg) were removed from the frozen samples (liver and kidney), weighed and digested in 1 mL papain solution prepared according to the Blyscan kit protocol. After the extraction, 20 μL from each reaction were used for sulphated GAG determination following the Blyscan kit protocol. The obtained values for sulphated GAG were adjusted to the volume of papain reaction and were normalized to the weight of the tissue used or, in the case of urine samples, to creatinine levels.
GAG tissue accumulation in liver and kidney sections was estimated based on Alcian Blue staining performed at low pH (pH 1), at which the dye stained predominantly sulphated GAG. Two slides at different levels per tissue block were used. Staining with 1% Alcian Blue in hydrochloric acid was performed on automated Leica Autostainer. […] Then for each proof image, an RGB index was calculated that was the mean of Red + Green + Blue intensities of all non-black pixels. […]

Arsb^- mice [2] = experiment: Cartilage thickness in trachea and distal femoral growth plate (histology); type: in vivo
Method: as §1
Housing conditions. The animals were housed in groups of 3–10 (for mice) or 2 (for rats) in polypropylene cages (floor area = 1032 cm^2) under standard conditions: room temperature (22 ± 2°C), hygrometry (55 ± 10%), light/dark cycle (12h/12h), air replacement (15–20 volumes/hour), water and food ad libitum. Mice were allowed to habituate for at least 5 days prior to experimentation. Mice were numbered by marking their tail using indelible markers. For the early disease model (treatment starting in juvenile, 4 weeks old mice), odiparcil administration in the weeks 1 to 6 was done per gavage with odiparcil in Methylcellulose 400 cps 1% / Poloxamer 188 0.1% / Water, freshly prepared every week. Later on, administration was per chow diet with odiparcil mixed before diet granulation. […]

[3] = more than 30 clinical trials, total of 1900 subjects; earlier development as antithrombotic agent; cited from earlier work
[4] = Odiparcil tissue exposure after repeated oral dosing (LC-MS/MS); type: in vivo, Sprague Dawley rats; conditions: rat
Method: Sprague Dawley rats were orally administered with odiparcil for 5-days, three times a day (t.i.d) with a 25 mg/kg/dose as a suspension in Methylcellulose 400 cps 1% / Poloxamer 188 0.1% / Water. On day 5, only one dose was administered and tissues–bone from head of femurs and cartilage also from head of femurs, cornea and heart–were collected at 30 min post-dosing, 3 animals per sample. Tissues were snap-frozen immediately after collection and stored at -20°C until odiparcil quantification by LC-MS/MS. Non compartmental method was applied with Phoenix WinNonLin® to estimate the Cmax and AUC parameters. Tissue partition coefficient (Kp) was calculated on AUC values (AUC tissue / AUC plasma). Moreover, Kp for the heart was corrected for the significant blood content (26%) while it was not corrected for bone, cartilage and cornea.

Cmax ([4]; Sprague-Dawley, bone (head of femurs), po, 25 mg/kg, bone (head of femurs), oral 25 mg/kg/dose t.i.d. 5 days, read-out: Cmax (converted)): 1310 ng/g
Cmax ([4]; Sprague-Dawley, bone (head of femurs), po, 25 mg/kg, bone, oral 25 mg/kg/dose t.i.d. 5 days, read-out: Cmax (converted)): 4 µM
Kp at 120 h ([4]; Sprague-Dawley, bone (head of femurs), po, 25 mg/kg, bone, oral 25 mg/kg/dose t.i.d. 5 days, read-out: Kp AUC (AUC tissue / AUC plasma)): 0.18
Kp ([4]; Sprague-Dawley, bone, cartilage, cornea, po, 25 mg/kg/dose, bone, cartilage and cornea together, repeated oral dosing, read-out: AUC Kp): ~0.15
Cmax ([4]; Sprague-Dawley, bone, cartilage, cornea, po, 25 mg/kg/dose, span over bone, cartilage and cornea, repeated oral dosing, read-out: Cmax (converted)): 500 ng/g to 1300 ng/g and 1.7 µM to 4 µM
Cmax ([4]; Sprague-Dawley, cartilage (head of femurs), po, 25 mg/kg, cartilage (head of femurs), oral 25 mg/kg/dose t.i.d. 5 days, read-out: Cmax (converted)): 1100 ng/g
Cmax ([4]; Sprague-Dawley, cartilage (head of femurs), po, 25 mg/kg, cartilage, oral 25 mg/kg/dose t.i.d. 5 days, read-out: Cmax (converted)): 3.4 µM
Kp at 120 h ([4]; Sprague-Dawley, cartilage (head of femurs), po, 25 mg/kg, cartilage, oral 25 mg/kg/dose t.i.d. 5 days, read-out: Kp AUC (AUC tissue / AUC plasma)): 0.12
Cmax ([4]; Sprague-Dawley, cornea, po, 25 mg/kg, cornea, oral 25 mg/kg/dose t.i.d. 5 days, read-out: Cmax (converted)): 535 ng/g and 1.7 µM
Kp at 120 h ([4]; Sprague-Dawley, cornea, po, 25 mg/kg, cornea, oral 25 mg/kg/dose t.i.d. 5 days, read-out: Kp AUC (AUC tissue / AUC plasma)): 0.12
Kp at 120 h ([4]; Sprague-Dawley, heart, po, 25 mg/kg, heart, corrected for blood content (26%), oral 25 mg/kg/dose t.i.d. 5 days, read-out: blood corrected Kp AUC): ~0.44
Kp at 120 h ([4]; Sprague-Dawley, heart, po, 25 mg/kg, heart, not blood corrected, oral 25 mg/kg/dose t.i.d. 5 days, read-out: Kp AUC (AUC tissue / AUC plasma)): 0.69
Cmax ([4]; Sprague-Dawley, heart, po, 25 mg/kg, heart, oral 25 mg/kg/dose t.i.d. 5 days, read-out: Cmax (converted)): ~4600 ng/g and ~14.3 µM
Cmax ([4]; Sprague-Dawley, plasma, po, 25 mg/kg, plasma, oral 25 mg/kg/dose t.i.d. 5 days, 30 min after last administration, read-out: Cmax (converted)): ~7300 ng/mL
Cmax ([4]; Sprague-Dawley, plasma, po, 25 mg/kg, plasma, oral 25 mg/kg/dose t.i.d. 5 days, read-out: Cmax (converted)): ~22.5 µM
AUC ([4]; Sprague-Dawley, plasma, oral 25 mg/kg/dose t.i.d. 5 days, read-out: AUC (converted)): 14800 ng·h/mL
AUC ([4]; bone, oral 25 mg/kg/dose t.i.d. 5 days): 2 646 ng.h/g
AUC ([4]; cartilage, oral 25 mg/kg/dose t.i.d. 5 days): 1 805 ng.h/g
AUC ([4]; cornea, oral 25 mg/kg/dose t.i.d. 5 days): 1 737 ng.h/g
AUC ([4]; heart, oral 25 mg/kg/dose t.i.d. 5 days): 10 203 ng.h/g
Cmax ([4]; plasma, oral 25 mg/kg/dose t.i.d. 5 days, 30 min after last administration, 25 mg/kg): 7 297 ng/mL
Compound: Cc1cc(=O)oc2cc(O[C@@H]3SC[C@@H](O)[C@H](O)[C@H]3O)ccc12 [Odiparcil, 4-methyl-7-(5-thio-β-D-xylopyranosyloxy)-2 H-chromen-2-one]
Liver sulphated GAG accumulation (Arsb^- mice [1]; early disease model, 1.5 and 4.5 g/kg diet): significantly reduced liver GAG at both doses
Kidney sulphated GAG accumulation (Arsb^- mice [1]; early disease model, 6 months, effect not significant): reduced kidney GAG
Liver sulphated GAG accumulation (Arsb^- mice [1]; established disease model, highest dose (4.5 g/kg diet)): significantly reduced liver GAG
Kidney sulphated GAG accumulation (Arsb^- mice [1]; established disease model, 6 months): significant only in the latter model
Liver and kidney GAG levels in wild type animals (Arsb^- mice [1]; wild type mice, two doses of odiparcil, 6 months): no significant effects on GAG levels
Cartilage thickening in trachea and distal femoral growth plate (Arsb^- mice [2]; Arsb^- mice, early and established disease models, 6 months of treatment): dose-dependent reduction of cartilage thickening
Cartilage thickness in wild type animals (Arsb^- mice [2]; wild type mice, early disease treatment model, only distal femoral growth plate, significant only for the high dose): Some decrease in the thickness of cartilage
Safety and tolerability in clinical trials [3]: good safety and tolerability

From PMC7228089, “Odiparcil, a potential glycosaminoglycans clearance therapy in mucopolysaccharidosis VI—Evidence from in vitro and in vivo models” (PLoS ONE, 2020)
